Laboratory results reported in PubChem BioAssay (NCI).
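Cells were grown in 96-well plates and exposed to each compound for 48 hours at five concentrations; endpoints were interpolated linearly between bracketing concentrations, or set to the highest concentration if not reached. The concentration for full growth arrest is given as TGI.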

Columns and labels:
Experiment in all cases: DTP human tumour cell line panel, 48 h
[1] = tested on: NCI/ADR-RES ovarian
[2] = tested on: MCF7 breast
[3] = tested on: HCT-116 colon
[4] = tested on: PC-3 prostate
[5] = tested on: DU-145 prostate
[6] = tested on: CCRF-CEM leukemia
[7] = tested on: TK-10 renal
[8] = tested on: SN12C renal
[9] = tested on: K-562 leukemia
[10] = tested on: EKVX NSCLC
[11] = tested on: SF-268 CNS
[12] = tested on: SF-295 CNS
[13] = tested on: NCI-H460 lung
[14] = tested on: HS 578T breast
[15] = tested on: OVCAR-4 ovarian
[16] = tested on: A549 NSCLC
[17] = tested on: LOX IMVI melanoma
[18] = tested on: SK-MEL-2 melanoma

| Structure (SMILES) | TGI [1] [µM] | TGI [2] [µM] | TGI [3] [µM] | TGI [4] [µM] | TGI [5] [µM] | TGI [6] [µM] | TGI [7] [µM] | TGI [8] [µM] | TGI [9] [µM] | TGI [10] [µM] | TGI [11] [µM] | TGI [12] [µM] | TGI [13] [µM] | TGI [14] [µM] | TGI [15] [µM] | TGI [16] [µM] | TGI [17] [µM] | TGI [18] [µM] |
| --- | --- | --- | --- | --- | --- | --- | --- | --- | --- | --- | --- | --- | --- | --- | --- | --- | --- | --- |
| COc1ccc(C2=Nn3c(nc4sc(C)c(C)c4c3=O)SC2)cc1 | > 100 | > 100 | > 100 | > 100 | > 100 | > 100 | > 100 | > 100 | > 100 | > 100 | > 100 | > 100 | > 100 | > 100 | > 100 | > 100 | > 100 |  |
| COc1ccc(/C=N/n2c(=O)[nH]c3ccccc3c2=O)cc1 | > 100 | > 100 | > 100 | > 100 | > 100 | > 100 | > 100 | > 100 | > 100 | > 100 | > 100 | > 100 | > 100 | > 100 |  | > 100 | > 100 | > 100 |
| Cc1nnc2sc(Cl)nn12 | > 100 | 29.5 | 26.2 | 47.2 | > 100 | 26.4 | 68.5 | > 100 | 72.9 | 43.9 |  | 36.2 | 37.4 | > 100 | 34.3 | 72.8 | 28.5 | 90.3 |
| C=C[C@]1(O)CCC[C@]2(C)C(=O)CCC12C (stereo partly specified) | > 100 | > 100 | > 100 | > 100 | > 100 |  |  | > 100 | > 100 | > 100 | > 100 | > 100 | > 100 | > 100 | > 100 | > 100 | > 100 | > 100 |
| CCN(CC)C(=S)SNc1ccc(S(N)(=O)=O)cc1 | > 100 | > 100 | > 100 | > 100 | > 100 |  | > 100 | > 100 | > 100 | > 100 | > 100 | > 100 | > 100 | > 100 | > 100 | > 100 | > 100 | > 100 |
| O=C(Nc1cccc(NC(=O)C(=O)C2CCC3=C(Sc4ccccc4N3)C2=O)n1)C(=O)C1CCC2=C(Sc3ccccc3N2)C1=O (stereo unspecified) | > 100 | > 100 | > 100 | > 100 | > 100 | > 100 |  | > 100 | > 100 | > 100 | > 100 | > 100 | > 100 | > 100 | 71.7 | > 100 | > 100 | > 100 |
| Cc1ccc(/C=N/Nc2nc3ccccc3s2)s1 | > 100 | > 100 | > 100 | > 100 | > 100 | > 100 | > 100 | 34.3 | > 100 | > 100 | > 100 | > 100 |  | > 100 | > 100 | > 100 | > 100 | > 100 |
| COc1ccc2c(c1)CCN=C2Cc1ccccc1CCCl | 64.9 | > 100 | > 100 | > 100 | > 100 | > 100 | > 100 | 72.5 | > 100 | > 100 | > 100 | > 100 | 38.8 | > 100 | > 100 | > 100 |  | 58.3 |
| COc1ccc(N=Nc2c(C)c(C#N)c(=S)n(C3OC(COC(C)=O)C(OC(C)=O)C(OC(C)=O)C3OC(C)=O)c2C)cc1 (stereo unspecified) | > 100 | > 100 | > 100 | > 100 | > 100 | > 100 | > 100 | > 100 | > 100 |  | > 100 | > 100 | > 100 | 82 | > 100 | > 100 | > 100 |  |
| CCOC(=O)[C@@H]1OC(c2ccccc2)O[C@H]1C(=O)OCC | > 100 | > 100 | > 100 | > 100 | > 100 | > 100 | > 100 | > 100 | > 100 | > 100 | > 100 | > 100 |  | > 100 | > 100 | > 100 | > 100 | > 100 |
| Cc1cc(N)ccc1N=Nc1ccc(S(=O)(=O)CCOS(=O)(=O)O)cc1 | > 100 | 11.8 | 12.6 | 12.7 | > 100 | > 100 | 27.5 | 11.1 |  | > 53 | 21.7 | 9.21 | 12.2 | 35.5 | 29 | 21.5 | 2.97 | 3.89 |
| CCCCCN1CCN(c2ncccn2)CC1 | > 100 | > 100 | > 100 | > 100 | > 100 | > 100 | > 100 | > 100 | > 100 | > 100 | > 100 | > 100 |  | > 100 | > 100 | > 100 | > 100 | > 100 |
| O=C(Nc1ccc(Cl)cc1)NS(=O)(=O)c1coc2ccccc2c1=O | > 10 | > 10 | > 10 | > 10 | > 10 | > 10 | > 10 | > 10 |  | > 10 | > 10 | > 10 | > 10 | > 10 | > 10 | > 10 | > 10 | > 10 |
| CCN1C(=S)n2cccc2C1CC(=O)c1ccc(Cl)cc1 (stereo unspecified) | > 100 | > 100 | > 100 | > 100 | > 100 |  | > 100 | > 100 | > 100 | > 100 | > 100 | > 100 | > 100 | > 100 | > 100 | > 100 | > 100 | > 100 |
